# Where a name gives a salt, the structure may show the parent alone.
# Test system: not given
# Test: not given
# Conditions: not given
row,melting point,Structure (SMILES)
1,250 to 252 °C,CC(=O)NC(C)C(=O)Nc1ccc(-c2oc3ncnc(N4CCOCC4)c3c2-c2ccc(F)cc2)cc1 (centres unmarked) [Example 55]
2,168 to 169 °C,COc1ccc(-c2oc3ncnc(N4CCN(C)CC4)c3c2-c2ccc(F)cc2)cc1OC [Example 53]
3,181 to 182 °C,COc1ccc(-c2c(-c3ccc(OC)c(OC)c3)oc3ncnc(NC4CCCCC4)c23)cc1 [Example 109]
4,131 to 133 °C,COc1cc(OC)cc(-c2oc3ncnc(NC(CO)CO)c3c2-c2ccccc2)c1 [Example 108]
5,153 to 154 °C,COc1cc(OC)cc(-c2oc3ncnc(NC4CCCC4)c3c2-c2ccccc2)c1 [Example 135]
6,> 250 °C,CN1CCN(c2ncnc3oc(-c4ccc(NC(=O)c5cccc([N+](=O)[O-])c5)cc4)c(-c4ccc(F)cc4)c23)CC1 [Example 48]
7,125 to 126 °C,CCN(CC)c1ncnc2oc(-c3ccc(OC)c(OC)c3)c(-c3ccccc3)c12 [Example 63]
8,176 to 177 °C,CN1CCN(c2ccc(-c3oc4ncnc(N5CCN(C)CC5)c4c3-c3ccccc3)cn2)CC1 [Example 173]
9,152 to 153 °C,"COc1cc(OC)cc(-c2oc3ncnc(N4CCCCC4)c3c2-c2ccccc2)c1 [Example 2, 6-(3,5-Dimethoxyphenyl)-5-phenyl-4-(1-piperidinyl)furo[2,3-d]pyrimidine]"
10,252 to 253 °C,COc1ccc(C(=O)Nc2ccc(-c3oc4ncnc(N5CCN(C)CC5)c4c3-c3ccc(F)cc3)cc2)cc1 [Example 54]
11,156 to 158 °C,OCCN(Cc1ccccc1)c1ncnc2oc(-c3ccc(F)cc3)c(-c3ccc(F)cc3)c12 [Example 177]
12,188 to 189 °C,COc1ccc(-c2oc3ncnc(N4CCN(CCO)CC4)c3c2-c2ccccc2)cc1OC [Example 112]
13,156 to 157 °C,COc1cc(OC)cc(-c2oc3ncnc(N4CCN(C)CC4)c3c2-c2ccccc2)c1 [Example 113]
14,> 250 °C,"CN1CCN(c2ncnc3oc(-c4ccc([N+](=O)[O-])cc4)c(-c4ccc(F)cc4)c23)CC1 [Example 3, 5-(4-Fluorophenyl)-4-(4-methyl-1-piperazinyl)-6-(4-nitrophenyl)furo[2,3-d]pyrimidine]"
15,211 to 213 °C,COc1ccc(-c2oc3ncnc(N4CCOCC4)c3c2-c2ccc(F)cc2)cc1OC [Example 116]
16,> 250 °C,COc1ccc(-c2oc3ncnc(N4CCC(C(N)=O)CC4)c3c2-c2ccccc2)cc1OC [Example 154]
17,> 250 °C,COC(=O)c1ccc(C(=O)Nc2ccc(-c3oc4ncnc(N5CCN(C)CC5)c4c3-c3ccc(F)cc3)cc2)cc1 [Example 88]
18,170 to 172 °C,COc1cc(OC)cc(-c2oc3ncnc(NC4CCCCCC4)c3c2-c2ccc(F)cc2)c1 [Example 69]
19,> 250 °C,CN1CCN(c2ncnc3oc(-c4ccc(NC(=O)C5CCCO5)cc4)c(-c4ccc(F)cc4)c23)CC1 (centres unmarked) [Example 49]
20,161 to 163 °C,COc1cc(OC)cc(-c2oc3ncnc(N4CCN(CCO)CC4)c3c2-c2ccc(F)cc2)c1 [Example 83]

row,melting point,Structure (SMILES)
1,> 250 °C,CN1CCN(c2ncnc3oc(-c4ccc(NC(=O)c5cccnc5)cc4)c(-c4ccc(F)cc4)c23)CC1 [Example 70]
2,132 to 134 °C,COc1cc(OC)cc(-c2oc3ncnc(N(C)CCO)c3c2-c2ccccc2)c1 [Example 157]
3,210 to 212 °C,COc1ccc(-c2oc3ncnc(N4CCN(c5ccccn5)CC4)c3c2-c2ccc(F)cc2)cc1OC [Example 114]
4,> 250 °C,O=C(Nc1ccc(-c2oc3ncnc(N4CCOCC4)c3c2-c2ccc(F)cc2)cc1)c1ccc([N+](=O)[O-])cc1 [Example 47]
5,148 to 150 °C,COc1ccc(-c2oc3ncnc(N4CCCCCC4)c3c2-c2ccc(F)cc2)cc1OC [Example 141]
6,180 to 181 °C,COc1ccc(-c2oc3ncnc(N4CCN(C(C)C)CC4)c3c2-c2ccc(F)cc2)cc1OC [Example 64]
7,180 to 181 °C,CN1CCC(N(C)c2ncnc3oc(-c4ccc(F)cc4)c(-c4ccc(F)cc4)c23)CC1
8,152 to 153 °C,COc1cc(OC)cc(-c2oc3ncnc(NCCc4cccs4)c3c2-c2ccccc2)c1 [Example 134]
9,180 to 182 °C,COc1ccc(-c2oc3ncnc(NC4CCCCCC4)c3c2-c2ccc(F)cc2)cc1OC [Example 115]
10,173 to 175 °C,CN1CCN(c2ncnc3oc(-c4ccc(Cl)nc4)c(-c4ccccc4)c23)CC1 [Example 94]
11,201 to 202 °C,O=C(Nc1ccc(-c2oc3ncnc(N4CCOCC4)c3c2-c2ccc(F)cc2)cc1)C1CCCO1 (centres unmarked) [Example 71]
12,161 to 163 °C,CN1CCN(c2ncnc3oc(-c4ccc(NCc5ccccc5)cc4)c(-c4ccccc4)c23)CC1 [Example 75]
13,235 to 237 °C,COc1ccc(-c2oc3ncnc(N4CCC(C(N)=O)CC4)c3c2-c2ccc(F)cc2)cc1OC [Example 51]
14,156 to 158 °C,COc1ccc(-c2oc3ncnc(N4CCN(CCO)CC4)c3c2-c2ccc(F)cc2)cc1OC [Example 39]
15,> 250 °C,COc1ccc(-c2oc3ncnc(Nc4ccncc4)c3c2-c2ccccc2)cc1OC [Example 172]
16,176 to 178 °C,COc1ccc(-c2oc3ncnc(N4CCC(O)CC4)c3c2-c2ccccc2)cc1OC [Example 111]
17,208 to 209 °C,CN1CCN(c2ncnc3oc(-c4ccc(NC5CCCCC5)nc4)c(-c4ccccc4)c23)CC1 [Example 125]
18,151 to 152 °C,"COc1cc(OC)cc(-c2oc3ncnc(NC4CCCCCC4)c3c2-c2ccccc2)c1 [Example 1, N-Cycloheptyl-6-(3,5-dimethoxyphenyl)-5-phenylfuro[2,3-d]pyrimidine-4-amine]"
19,255 to 257 °C,"CN1CCN(c2ncnc3oc(-c4ccc(N5CCOCC5)nc4)c(-c4ccccc4)c23)CC1 [Example 7, 4-(4-Methyl-1-piperazinyl)-6-[N-(4-morpholinyl)-3-pyridinyl]-5-phenylfuro[2,3-d]pyrimidine]"
20,137 to 139 °C,COc1ccc(-c2oc3ncnc(N(CCO)CCO)c3c2-c2ccccc2)cc1OC [Example 159]

# Target: human recombinant adenosine kinase (Homo sapiens, UniProt P55263)
# Test: Inhibition of human recombinant adenosine kinase
# Type: biochemical
# Conditions: 14C-adenosine substrate, 0.5 mM ATP, 37° C., 20 min; read-out: Adenosine kinase inhibition (in vitro): IC50
# Protocol: 1. Inhibition of Human Recombinant Adenosine Kinase
# The test is carried out on 96-well filter plates (DE81 from Millipore, DEAE cellulose, 0.65 μm). The test buffer contains 50 mM tris/HCl pH 8.0, 10 mM DTT and 1 mM MgCl2; immediately prior to the start of the test, ATP is added in a concentration of 0.5 mM. The substrate used is ^14C-adenosine, diluted 1:30 in cold adenosine; the final concentration of the cold adenosine is 4×10^−6 M; the amount of ^14C-adenosine is chosen such that, at a volume of 10 μl, an activity of 0.5 kBq (=30 000 decays per minute) is present per well of the filter plate. The substances to be tested are dissolved in DMSO in a concentration of 10^−2 M. Further dilutions are carried out using water.
# When carrying out the test, initially 80 μl of buffer are initially charged into each well. The test substances, the substrate adenosine and finally human recombinant adenosine kinase (Mathews J. J. et al., Biochemistry (1998) 37, 15607-15620) in test buffer pH 7.4 are added successively, in each case in a volume of 10 μl. The adenosine kinase concentration is chosen such that at most 30% of the total amount of adenosine are converted. The plates are then incubated at 37° C. for 20 min. The reaction is then stopped by filtration with suction. The filters are washed in each case once with ice-cold wash buffer (15 mM Tris/HCl pH 8.5) and ethanol. The plate is dried at 37° C. (about 15 min). 50 μl of scintillation solution are then pipetted into each well, and the ^14C activity is determined in a MicroBeta counter.
# The inhibition of the enzyme activity by the substances tested is determined after substration of the blank value (no added enzyme) in comparison to the uninhibited enzyme (100% value).
# Sequence of human recombinant adenosine kinase (P55263 1-345 isoform P55263-2): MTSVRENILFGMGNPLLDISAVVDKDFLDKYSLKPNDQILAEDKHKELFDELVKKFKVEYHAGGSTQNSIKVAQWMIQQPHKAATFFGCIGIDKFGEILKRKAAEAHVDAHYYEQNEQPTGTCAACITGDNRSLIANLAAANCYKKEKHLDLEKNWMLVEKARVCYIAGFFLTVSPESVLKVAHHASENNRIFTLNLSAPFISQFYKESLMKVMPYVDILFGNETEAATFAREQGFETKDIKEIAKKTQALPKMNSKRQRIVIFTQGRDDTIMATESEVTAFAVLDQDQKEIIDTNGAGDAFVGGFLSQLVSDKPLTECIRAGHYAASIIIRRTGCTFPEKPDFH
row,IC50,Structure (SMILES)
1,10 nM,"CN1CCN(c2ccc(-c3oc4ncnc(N5CCC(O)CC5)c4c3-c3ccccc3)cn2)CC1 [Example 10, 1-{6-[6-(4-Methyl-1-piperazinyl)-3-pyridinyl]-5-phenylfuro[2,3-d]pyrimidin-4-yl]-4-piperidinol]"
2,100 nM,"CC(C)CNc1ncnc2oc(-c3ccc(C(=O)N4CCN(C)CC4)cc3)c(-c3ccccc3)c12 [Example 13, N-Isobutyl-6-{4-[(4-methyl-1-piperazinyl)carbonyl]phenyl}-5-phenylfuro[2,3-d]-pyrimidine-4-amine]"
3,30 nM,"CN1CCN(c2ncnc3oc(-c4ccc(NC(=O)c5cccnc5)cc4)c(-c4ccccc4)c23)CC1 [Example 32, N-{4-[4-(4-Methyl-1-piperazinyl)-5-phenylfuro[2,3-d]pyrimidin-6-yl]phenyl}-nicotinamide]"
4,80 nM,"COc1ccc(-c2oc3ncnc(N(C)C4CCCCCC4)c3c2-c2ccc(OC)cc2)cc1 [Example 29, N-Cycloheptyl-5,6-bis(4-methoxyphenyl)-N-methylfuro[2,3-d]pyrimidine-4-amine]"
5,20 nM,"CN1CCN(c2ncnc3oc(-c4ccc(NC(=O)CN)cc4)c(-c4ccc(F)cc4)c23)CC1 [Example 6, N-1-{4-[5-(4-Fluorophenyl)-4-(4-methyl-1-piperazinyl)furo[2,3-d]pyrimidin-6-yl]phenylgylcinamidedihydrochloride]"
6,5 nM,CC(=O)N1CCN(c2ccc(-c3oc4ncnc(N5CCC(O)CC5)c4c3-c3ccc(F)cc3)cn2)CC1 [Example 255]
7,20 nM,"O=C(Nc1ccc(-c2oc3ncnc(N4CCC(O)CC4)c3c2-c2ccc(F)cc2)cc1)[C@@H]1CCCN1 [Example 201, N-{4-[5-Fluorophenyl)-4-(4-hydroxy-1-piperidinyl)furo[2.3-d]pyrimidin-6-yl]-phenyl}-L-prolinamide Hydrochloride]"
8,20 nM,"OC1CCN(c2ccc(-c3oc4ncnc(N5CCC(O)CC5)c4c3-c3ccc(F)cc3)cn2)CC1 [Example 198, 1-{5-[5-(4-Fluorophenyl)-4-(4-hydroxy-1-piperidinyl)furo[2,3-d]pyrimidin-6-yl]-2-pyridinyl}-4-piperidinol]"
9,30 nM,NC1CCN(c2ccc(-c3oc4ncnc(N5CCC(N)CC5)c4c3-c3ccc(F)cc3)cn2)CC1 [Example 270]
10,30 nM,"CN1CCN(c2ncnc3oc(-c4ccc(N5CCC5=O)cc4)c(-c4ccc(F)cc4)c23)CC1 [Example 24, 1-{4-[5-(4-Fluorophenyl)-4-(4-methyl-1-piperazinyl)furo[2,3-d]pyrimidin-6-yl]phenyl}-2-azetidinone]"

# — patent publication US20040259888A1, “Novel 4-aminofuropyrimidines and the use thereof” (priority 2001, published 2004)
